Molecules are shown by their SMILES. Where two headings read alike, the source gives them in different places.

This is an account of results in patent publication US9204653B2, “5-fluoro pyrimidine derivatives” (DOW AGROSCIENCES LLC, priority 2008, dated 2015).

Experiment [1] concerns Venturia inaequalis; Bayer Code VENTIN. Description: Apple scab. The conditions noted are these: 24 h, % disease control rating, one day protectant; for pest or weed control at 25 ppm: read-out: VENTIN 1 DP 25 ppm; for pest or weed control at 75 ppm: read-out: VENTIN 1 DP 75 ppm. The format is in vivo.
The test system of experiment [2] is Cercospora beticola; Bayer Code CERCBE. Description: Leaf spot of sugar beets. The format is in vivo, Cercospora beticola on sugar beets (variety HH-88). The following applies: 24 h, % disease control rating, one day protectant; for pest or weed control at 25 ppm: read-out: CERCBE 1 DP 25 ppm; for pest or weed control at 75 ppm: read-out: CERCBE 1 DP 75 ppm.
Experiment [3] deals with Mycosphaerella graminicola; Anamorph: Septoria tritici; Bayer Code SEPTTR. In words: Leaf blotch of wheat, foliar fungicide treatment, one day protectant (1DP) or three day curative (3DC). The following applies: Zymoseptoria tritici, percent disease control rating. The format is in vivo, Septoria tritici on wheat plants (variety Yuma).
[4] abbreviates: 24 h, one day protectant (1DP), read-out: SETTTR 1DP 25 ppm.
Setting [5] is: 24 h, one day protectant (1DP), read-out: SEPTTR 1DP 100 ppm.
Where [6] appears, read: 72 h, three day curative (3DC), read-out: SEPTTR 3DC 25 ppm.
Where [7] appears, read: 72 h, three day curative (3DC), read-out: SEPTTR 3DC 100 ppm.

On to `CCC(Nc1nc(OCc2ccc(F)cc2)ncc1F)OC` (centres unmarked) [Compound 14, [5-Fluoro-2-(4-fluorobenzyloxy)pyrimidin-4-yl](1-methoxypropyl)amine], for which the pest or weed control at 25 ppm in experiment [1] lay in the range of 76 to 100%; in experiment [2], 0 to 25%; in experiment [3] (setting [4]), 76 to 100%; in experiment [3] (setting [6]), 76 to 100%. Also, the pest or weed control at 75 ppm in experiment [1] lay in the range of 76 to 100%; in experiment [2], 0 to 25%. In addition, the pest or weed control at 100 ppm in experiment [3] (setting [5]) and in experiment [3] (setting [7]) was 76 to 100% in each case.
With `N#CN/C=N/c1nc(OCc2ccc(F)cc2)ncc1F` [Compound 23, N-[5-Fluoro-2-(4-fluorobenzyloxy)pyrimidin-4-yl]-N′-cyanoformamidine], the pest or weed control at 25 ppm fell in the range of 51 to 75% in experiment [1], 0 to 25% in experiment [2], 76 to 100% in experiment [3] (setting [4]) and 76 to 100% in experiment [3] (setting [6]). For the same compound, the pest or weed control at 75 ppm in experiment [1] lay within 76 to 100%; in experiment [2], 51 to 75%. Moreover, the pest or weed control at 100 ppm in experiment [3] (setting [5]) and in experiment [3] (setting [7]) was 76 to 100% in each case.
For `CC/C(=N\c1nc(OCc2ccc(F)cc2)ncc1F)N(C)C` [Compound 24, N′-[5-Fluoro-2-(4-fluorobenzyloxy)pyrimidin-4-yl]-N,N-dimethyl-propionamidine], the pest or weed control at 25 ppm in experiment [1] lay within 26 to 50%; in experiment [2], 0 to 25%; in experiment [3] (setting [4]) it was 76 to 100%; in experiment [3] (setting [6]), 76 to 100%. Also, the pest or weed control at 75 ppm in experiment [1] lay in the range of 76 to 100%; in experiment [2], 0 to 25%. For the same compound, the pest or weed control at 100 ppm in experiment [3] (setting [5]) and in experiment [3] (setting [7]) was 76 to 100% each time.
On to `CCCNC(=O)N(C(=O)NCCC)c1nc(OCc2cccc(OC)c2)ncc1F` [Compound 36, 1-[5-Fluoro-2-(3-methoxybenzyloxy)pyrimidin-4-yl](3′-propylcarbamoyl)-3-propyl-urea], for which the pest or weed control at 25 ppm in experiment [1] lay within 51 to 75%; in experiment [2], 51 to 75%; in experiment [3] (setting [4]), 26 to 50%; in experiment [3] (setting [6]) it was 51 to 75%. Also, the results for the pest or weed control at 75 ppm in experiment [1] and in experiment [2] were 76 to 100% and 51 to 75%, respectively. The pest or weed control at 100 ppm in experiment [3] (setting [5]) and in experiment [3] (setting [7]) was 76 to 100% throughout.
As for `Nc1nc(OC(Cc2ccccc2)c2ccc(F)cc2)ncc1F` (centres unmarked) [Compound 61], the pest or weed control at 25 ppm in experiment [1] lay within 76 to 100%; in experiment [2] it was 0 to 25%; in experiment [3] (setting [4]) it was 76 to 100%; in experiment [3] (setting [6]) it was 0 to 25%. Besides, the pest or weed control at 75 ppm in experiment [1] lay within 51 to 75%; in experiment [2], 0 to 25%. For the same compound, the pest or weed control at 100 ppm in experiment [3] (setting [5]) lay within 76 to 100%; in experiment [3] (setting [7]), 0 to 25%.
Regarding `CCCCCCOc1ncc(F)c(/N=C/N(C)C)n1` [Compound 68], the pest or weed control at 25 ppm in experiment [1] lay within 51 to 75%; in experiment [2], 51 to 75%; in experiment [3] (setting [4]) it was 0 to 25%; in experiment [3] (setting [6]), 0 to 25%. Also, the pest or weed control at 75 ppm in experiment [1] lay within 76 to 100%; in experiment [2] it was 51 to 75%. Further, the pest or weed control at 100 ppm in experiment [3] (setting [5]) and in experiment [3] (setting [7]) was 51 to 75% in each case.
As to `Nc1nc(OCc2coc(Cc3ccccc3)c2)ncc1F` [Compound 69], the pest or weed control at 25 ppm fell in the range of 51 to 75% in experiment [1], 0 to 25% in experiment [2], 76 to 100% in experiment [3] (setting [4]) and 51 to 75% in experiment [3] (setting [6]). In addition, the pest or weed control at 75 ppm in experiment [1] is 76 to 100%; in experiment [2], 26 to 50%. For the same compound, the pest or weed control at 100 ppm in experiment [3] (setting [5]) and in experiment [3] (setting [7]) was 76 to 100% in each case.
On to `Nc1nc(OCc2ccc(OCC(F)(F)F)nc2)ncc1F` [Compound 79], for which the pest or weed control at 25 ppm in experiment [1] lay in the range of 26 to 50%; in experiment [2] it was 0 to 25%; in experiment [3] (setting [4]), 76 to 100%; in experiment [3] (setting [6]) it was 76 to 100%. The pest or weed control at 75 ppm in experiment [1] and in experiment [2] was 26 to 50% each time. In addition, the pest or weed control at 100 ppm in experiment [3] (setting [5]) and in experiment [3] (setting [7]) was 76 to 100% in each case.
On to `CC(Oc1ncc(F)c(NCOCc2ccccc2)n1)c1ccc(F)cc1` (centres unmarked) [Compound 121], for which the pest or weed control at 25 ppm in experiment [1] fell in the range of 76 to 100%; in experiment [2] it was 0 to 25%; in experiment [3] (setting [4]), 51 to 75%; in experiment [3] (setting [6]), 51 to 75%. Also, the pest or weed control at 75 ppm lay within 26 to 50% in experiment [1] and 0 to 25% in experiment [2]. In addition, the pest or weed control at 100 ppm in experiment [3] (setting [5]) and in experiment [3] (setting [7]) was 76 to 100% in each case.
Consider `CCCNC(=S)Nc1nc(OCc2ccn(C)n2)ncc1F` [Compound 122], for which the pest or weed control at 25 ppm in experiment [1] fell in the range of 76 to 100%; in experiment [2], 26 to 50%; in experiment [3] (setting [4]) it was 0 to 25%; in experiment [3] (setting [6]), 26 to 50%. In addition, the pest or weed control at 75 ppm in experiment [1] lay in the range of 76 to 100%; in experiment [2], 26 to 50%. Further, the pest or weed control at 100 ppm in experiment [3] (setting [5]) was in the range of 51 to 75%; in experiment [3] (setting [7]) it was 76 to 100%.
In the case of `O=[N+]([O-])c1ccccc1SNc1nc(OCc2cc(C(F)(F)F)cc(C(F)(F)F)c2)ncc1F` [Compound 125], the pest or weed control at 25 ppm in experiment [1] fell in the range of 26 to 50%; in experiment [2] it was 26 to 50%; in experiment [3] (setting [4]), 26 to 50%; in experiment [3] (setting [6]), 0 to 25%. The values for the pest or weed control at 75 ppm in experiment [1] and in experiment [2] were 76 to 100% and 26 to 50%, respectively. Moreover, the pest or weed control at 100 ppm is 26 to 50% in experiment [3] (setting [5]) and 0 to 25% in experiment [3] (setting [7]).
For the compound `Fc1ccc(COc2ccc(F)c(NC(=S)Nc3ccccc3F)c2)cc1` [Compound 135], the pest or weed control at 25 ppm in experiment [1] was 51 to 75%; in experiment [2], 26 to 50%; in experiment [3] (setting [4]), 76 to 100%; in experiment [3] (setting [6]), 51 to 75%. Besides, the figures for the pest or weed control at 75 ppm in experiment [1] and in experiment [2] were 51 to 75% and 26 to 50%, respectively. Also, the pest or weed control at 100 ppm in experiment [3] (setting [5]) and in experiment [3] (setting [7]) was 76 to 100% in each case.
For the compound `CCCCCCOc1ncc(F)c(N)n1` [Compound 137], the pest or weed control at 25 ppm in experiment [1] lay within 0 to 25%; in experiment [2], 0 to 25%; in experiment [3] (setting [4]), 26 to 50%; in experiment [3] (setting [6]), 26 to 50%. Besides, the pest or weed control at 75 ppm in experiment [1] was in the range of 76 to 100%; in experiment [2], 0 to 25%. Further, the pest or weed control at 100 ppm in experiment [3] (setting [5]) and in experiment [3] (setting [7]) was 76 to 100% throughout.
For the compound `Nc1nc(OCc2nc(Cl)ccc2Cl)ncc1F` [Compound 141], the pest or weed control at 25 ppm in experiment [1] lay within 0 to 25%; in experiment [2], 0 to 25%; in experiment [3] (setting [4]) it was 0 to 25%; in experiment [3] (setting [6]) it was 51 to 75%. Moreover, the pest or weed control at 75 ppm in experiment [1] was 26 to 50%; in experiment [2] it was 0 to 25%. Also, the pest or weed control at 100 ppm in experiment [3] (setting [5]) fell in the range of 76 to 100%; in experiment [3] (setting [7]), 26 to 50%.
For `CNc1nc(OCc2ccc(OC)c(C(F)(F)F)c2)ncc1F` [Compound 155], the pest or weed control at 25 ppm is 26 to 50% in experiment [1], 0 to 25% in experiment [2], 51 to 75% in experiment [3] (setting [4]) and 76 to 100% in experiment [3] (setting [6]). Further, the pest or weed control at 75 ppm in experiment [1] and in experiment [2] was 0 to 25% each time. Moreover, the pest or weed control at 100 ppm in experiment [3] (setting [5]) and in experiment [3] (setting [7]) was 76 to 100% each time.
Regarding `O=C(Nc1nc(OCc2cccc(F)c2)ncc1F)c1ccccc1` [Compound 158], the pest or weed control at 25 ppm lay in the range of 51 to 75% in experiment [1], 0 to 25% in experiment [2], 76 to 100% in experiment [3] (setting [4]) and 76 to 100% in experiment [3] (setting [6]). Further, the pest or weed control at 75 ppm in experiment [1] lay in the range of 51 to 75%; in experiment [2] it was 0 to 25%. Moreover, the pest or weed control at 100 ppm in experiment [3] (setting [5]) and in experiment [3] (setting [7]) was 76 to 100% each time.
As for `CCCNC(=O)Nc1nc(OCc2cccc(C#N)c2)ncc1F` [Compound 163], the pest or weed control at 25 ppm in experiment [1], in experiment [2], in experiment [3] (setting [4]) and in experiment [3] (setting [6]) was 0 to 25% in each case. Further, the values for the pest or weed control at 75 ppm in experiment [1] and in experiment [2] were 26 to 50% and 0 to 25%, respectively. The pest or weed control at 100 ppm in experiment [3] (setting [5]) and in experiment [3] (setting [7]) was 0 to 25% in each case.
Regarding `CN(Cc1ccccc1F)c1nc(OCc2ccc(F)cc2)ncc1F` [Compound 164], the pest or weed control at 25 ppm was in the range of 26 to 50% in experiment [1], 0 to 25% in experiment [2], 26 to 50% in experiment [3] (setting [4]) and 0 to 25% in experiment [3] (setting [6]). For the same compound, the values for the pest or weed control at 75 ppm in experiment [1] and in experiment [2] were 51 to 75% and 0 to 25%, respectively. Further, the pest or weed control at 100 ppm in experiment [3] (setting [5]) and in experiment [3] (setting [7]) was 51 to 75% throughout.
Take `Fc1ccccc1CNC(=S)Nc1nc(OCc2cccs2)ncc1F` [Compound 169]: the pest or weed control at 25 ppm in experiment [1] lay in the range of 51 to 75%; in experiment [2], 0 to 25%; in experiment [3] (setting [4]), 51 to 75%; in experiment [3] (setting [6]) it was 0 to 25%. The pest or weed control at 75 ppm was in the range of 26 to 50% in experiment [1] and 0 to 25% in experiment [2]. Further, the pest or weed control at 100 ppm in experiment [3] (setting [5]) lay in the range of 76 to 100%; in experiment [3] (setting [7]), 0 to 25%.
